For experiment [1], the target named is T1, 11beta-HSD1 (Homo sapiens, UniProt P28845). The experiment can be described thus: Microsome assay: cortisone to cortisol conversion, ELISA detection. Type of experiment: biochemical. The arrangement: The cDNA encoding the human 11beta-HSD1 protein was cloned into the expression vector pcDNA3; made in house; host or cells: HEK293 cells (ATCC CRL-1573), transient transfection; microsomal fraction. To be noted: microsomes from HEK293 cells transiently expressing human 11beta-HSD1; 60 min, 37° C.; Cortisone 50-200 nM, NADPH 1 mM; read-out: h 11-beta-HSD 1 IC50. Here is the method:
The cDNA encoding the human 11beta-HSD1 protein was cloned into the expression vector pcDNA3 ([…]). This construct (for details see Alex Odermatt et al.; J Biol Chem., 1999, Vol. 274, Issue 40, 28762-28770) was used to transiently express the protein in HEK293 cells (ATCC number: CRL-1573, described in Graham, F. L., Smiley, J., Russell, W. C., Nairn, R.; (1977)) using lipofectamine. 48 h after transfection cells were washed twice with ice-cold PBS (Phsophate buffered Saline). To 1 volume of cell suspension in PBS 2 volumes of ice-cold lysis buffer (50 mM Tris; pH7.5; 1 mM EDTA; 100 mM NaCl) were added. The cells were lysed by Potter-homogenization (20 strokes). The resulting homogenate was sonicated with a tip sonicator (10% output; 2×30 sec.) and cleared by a low speed centrifugation (10 min×9000 g; 4° C.). The microsomal fraction was collected by a high speed centrifugation (60 min×110,000 g). […]
Microsomes isolated from HEK293 cells transiently expressing human 11beta-HSD1 (for details see above) were incubated in assay buffer (100 mM NaCl; 1 mM EDTA; 1 mM EGTA; 1 mM MgCl; 250 mM Sucrose; 20 mM Tris pH 7.4; Cortisone 50-200 nM and NADPH 1 mM) together with different concentrations of test substances. […] The amount of Cortisol produced in this assay was determined using a commercially available, ELISA-based Cortisol-detection kit (Distributed by Assay Design, Inc.). […]
On the technique in general: An ELISA detects its analyte on a solid surface through an enzyme-linked reagent.

Experiment [2] addresses T1, 11beta-HSD1. Also on record: host or cells: human subjects (in vivo). The conditions noted are these: treatment of humans with carbenoxolone; cited from earlier work.

The IC50 is the concentration that gives 50% inhibition.

T1 sequence (P28845 whole entry): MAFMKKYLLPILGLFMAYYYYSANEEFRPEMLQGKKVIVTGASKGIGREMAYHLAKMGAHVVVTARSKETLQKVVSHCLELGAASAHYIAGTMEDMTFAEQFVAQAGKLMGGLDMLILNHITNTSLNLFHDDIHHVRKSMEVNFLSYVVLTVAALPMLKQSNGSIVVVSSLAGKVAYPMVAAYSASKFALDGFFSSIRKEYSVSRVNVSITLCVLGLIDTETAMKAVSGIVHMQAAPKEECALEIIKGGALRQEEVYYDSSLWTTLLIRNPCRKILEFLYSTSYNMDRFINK

Turning to `O=S(=O)(Nc1ccnc(C2CC2)n1)c1ccc(-c2ccccc2)cc1` [Example 5, Biphenyl-4-sulfonic acid (2-cyclopropyl-pyrimidin-4-yl)-amide], the IC50 at 11beta-HSD1 [1] amounted to 0.02 µM.

As for `CC(C)c1nccc(NS(=O)(=O)c2ccc3ccccc3c2)n1` [Example 26, Naphthalene-2-sulfonic acid (2-isopropyl-pyrimidin-4-yl)-amide], the IC50 at 11beta-HSD1 [1] was 0.167 µM.

For the compound `CC1(C)[C@@H](OC(=O)CCC(=O)O)CC[C@]2(C)[C@H]3C(=O)C=C4[C@@H]5C[C@@](C)(C(=O)O)CC[C@]5(C)CC[C@@]4(C)[C@]3(C)CC[C@@H]12` [carbenoxolone], the “effect on insulin sensitivity” value on 11beta-HSD1 [2] was “increase in insulin sensitivity”.

The values above are taken from US7507733B2, “11b-HSD1 inhibitors for the treatment of diabetes” (Hoffmann-La Roche Inc., priority 2004, dated 2009).
